Results reported in patent publication US20190055576A1, “USE OF HERBICIDE-TOLERANT PROTEIN” (BEIJING DABEINONG TECHNOLOGY GROUP CO., LTD., priority 2016, published 2019).

Columns and labels:
[1] = tested on: wild-type maize plants (CK2); assay: Sulfometuron-methyl tolerance of wild-type maize plants, damage degree; assay type: in vivo; conditions: 120 g ai/ha
Excerpt: The herbicide tolerance effects of Zm cytoplasmic ALT-1-02 maize plants, Zm chloroplastic ALT-1-02 maize plants, Zm cytoplasmic ALT-2-02 maize plants, Zm chloroplastic ALT-2-02 maize plants, Zm cytoplasmic ALT-3-02 maize plants, Zm chloroplastic ALT-3-02 maize plants and wild-type maize plants on Sulfometuron-methyl were detected (at V3-V4 stage), respectively.
Zm cytoplasmic ALT-1-02 maize plants, Zm chloroplastic ALT-1-02 maize plants, Zm cytoplasmic ALT-2-02 maize plants, Zm chloroplastic ALT-2-02 maize plants, Zm cytoplasmic ALT-3-02 maize plants, Zm chloroplastic ALT-3-02 maize plants and wild-type maize plants were respectively taken and sprayed with Sulfometuron-methyl (120 g ai/ha, 4-fold field concentration) and a blank solvent (water). The damage degree caused by the herbicide was measured for each plant according to the plant growth status 3 days after spraying (3 DAT), 7 days after spraying (7 DAT), 14 days after spraying (14 DAT) and 21 days after spraying (21 DAT), respectively: considering a growth status equivalent to that of the untreated plants as having a damage degree of 0%; considering conditions of leaves being partially chlorotic and yellow but substantially not affecting the plant normal growth as having a damage degree of 50%; and considering the whole plant being purple and dying as having a damage degree of 100%. There were 2 strains in Zm cytoplasmic ALT-1-02 maize plants in total (S13 and S14), 2 strains in Zm chloroplastic ALT-1-02 maize plants in total (S15 and S16), 2 strains in Zm cytoplasmic ALT-2-02 maize plants in total (S17 and S18), 2 strains in Zm chloroplastic ALT-2-02 maize plants in total (S19 and S20), 2 strains in Zm cytoplasmic ALT-3-02 maize plants in total (S21 and S22), 2 strains in Zm chloroplastic ALT-3-02 maize plants in total (S23 and S24), and 1 strain in wild-type maize plants (CK2) in total; and 10-15 plants were selected from each strain and tested.

[2] = tested on: transgenic Arabidopsis thaliana T1 plants (ALT-1-01, ALT-2-01, ALT-3-01; cytoplasmic or chloroplastic); assay: Herbicide tolerance of transgenic Arabidopsis thaliana T1 plants expressing thifensulfuron hydrolase, resistance classes counted after spraying; assay type: in vivo; conditions: for Highly resistant (number of plants with growth status consistent with blank solvent group) / Moderately resistant (number of plants with bolting height less than 1/2 of blank solvent group) / Non-resistant (number of plants dead) / Poorly resistant (number of plants still not capable of bolting): 1-fold field concentration (g ai/ha: Sulfometuron-methyl 30, iodosulfuron-methyl 10, mesosulfuron 14, oxasulfuron 60), 14 days after spraying
Excerpt: T1 transformants were initially selected from the background of untransformed seeds using a glufosinate selection scheme. About 40000 T1 seeds were screened, and 380 T1 positive transformants (PAT gene) were identified with a transformation efficiency of about 0.95%. The plants that were transformed with the recombinant expression vector DBN100632 were Arabidopsis thaliana plants having an ALT-1-01 nucleotide sequence located in the cytoplasm introduced (At cytoplasmic ALT-1-01), and the plants that were transformed with the recombinant expression vector DBN100631 were Arabidopsis thaliana plants having an ALT-1-01 nucleotide sequence located in the chloroplast introduced (At chloroplastic ALT-1-01); the plants that were transformed with the recombinant expression vector DBN100634 were Arabidopsis thaliana plants having an ALT-2-01 nucleotide sequence located in the cytoplasm introduced (At cytoplasmic ALT-2-01), and the plants that were transformed with the recombinant expression vector DBN100633 were Arabidopsis thaliana plants having an ALT-2-01 nucleotide sequence located in the chloroplast introduced (At chloroplastic ALT-2-01); and the plants that were transformed with the recombinant expression vector DBN100636 were Arabidopsis thaliana plants having an ALT-3-01 nucleotide sequence located in the cytoplasm introduced (At cytoplasmic ALT-3-01), and the plants that were transformed with the recombinant expression vector DBN100635 were Arabidopsis thaliana plants having an ALT-3-01 nucleotide sequence located in the chloroplast introduced (At chloroplastic ALT-3-01). The herbicide tolerance effects of At cytoplasmic ALT-1-01 T1 plants, At chloroplastic ALT-1-01 T1 plants, At cytoplasmic ALT-2-01 T1 plants, At chloroplastic ALT-2-01 T1 plants, At cytoplasmic ALT-3-01 T1 plants, At chloroplastic ALT-3-01 T1 plants and wild-type Arabidopsis thaliana plants on Sulfometuron-methyl were detected (14 days after sowing), respectively.
At cytoplasmic ALT-1-01 T1 plants, At chloroplastic ALT-1-01 T1 plants, At cytoplasmic ALT-2-01 T1 plants, At chloroplastic ALT-2-01 T1 plants, At cytoplasmic ALT-3-01 T1 plants, At chloroplastic ALT-3-01 T1 plants and wild-type Arabidopsis thaliana plants were sprayed with Sulfometuron-methyl (30 g ai/ha, 1-fold field concentration) and a blank solvent (water), respectively. Plants were counted for the resistance situations 14 days after spraying: those having a consistent growth status with the blank solvent (water) group after 14 days were classified as highly resistant plants, those having a bolting height less than ½ of that of the blank solvent (water) group after 14 days were classified as moderately resistant plants, those still not capable of bolting after 14 days were classified as poorly resistant plants, and those dead after 14 days were classified as non-resistant plants. Since each Arabidopsis thaliana T1 plant was an independent transformation event, a significant difference in individual T1 responses could be expected at a given dose.
At cytoplasmic ALT-1-01 T1 plants, At chloroplastic ALT-1-01 T1 plants, At cytoplasmic ALT-2-01 T1 plants, At chloroplastic ALT-2-01 T1 plants, At cytoplasmic ALT-3-01 T1 plants, At chloroplastic ALT-3-01 T1 plants and wild-type Arabidopsis thaliana plants in Example 4 were sprayed with iodosulfuron-methyl (10 g ai/ha, 1-fold field concentration), mesosulfuron (14 g ai/ha, 1-fold field concentration) and oxasulfuron (60 g ai/ha, 1-fold field concentration), respectively, in addition to Sulfometuron-methyl (30 g ai/ha, 1-fold field concentration) and the blank solvent (water). […]

[3] = At chloroplastic ALT-1-01 T1 plants
[4] = At chloroplastic ALT-2-01 T1 plants
[5] = At chloroplastic ALT-3-01 T1 plants
[6] = At cytoplasmic ALT-1-01 T1 plants
[7] = At cytoplasmic ALT-2-01 T1 plants
[8] = At cytoplasmic ALT-3-01 T1 plants

COC(=O)c1ccccc1S(=O)(=O)NC(=O)Nc1nc(C)cc(C)n1 [Sulfometuron-methyl, 2-(4,6-dimethylpyrimidine-2-amino-formamido-sulfonyl) methyl benzoate]
Average damage % 3DAT ([1]; CK2 (wild-type maize), 4-fold field concentration, 3 days after spraying): 44% | Average damage % 7DAT ([1]; CK2 (wild-type maize), 4-fold field concentration, 7 days after spraying): 87% | Average damage % 14DAT ([1]; CK2 (wild-type maize), 4-fold field concentration, 14 days after spraying): 100% | Average damage % 21DAT ([1]; CK2 (wild-type maize), 4-fold field concentration, 21 days after spraying): 100% | herbicide tolerance of wild-type plants ([1]; wild-type maize plants): not tolerant | Highly resistant (number of plants with growth status consistent with blank solvent group) [2, 3]: 27 | Moderately resistant (number of plants with bolting height less than 1/2 of blank solvent group) [2, 3]: 0 | Non-resistant (number of plants dead) [2, 3]: 1 | Poorly resistant (number of plants still not capable of bolting) [2, 3]: 0 | Highly resistant (number of plants with growth status consistent with blank solvent group) [2, 4]: 29 | Moderately resistant (number of plants with bolting height less than 1/2 of blank solvent group) [2, 4]: 0 | Non-resistant (number of plants dead) [2, 4]: 0 | Poorly resistant (number of plants still not capable of bolting) [2, 4]: 1 | Highly resistant (number of plants with growth status consistent with blank solvent group) [2, 5]: 27 | Moderately resistant (number of plants with bolting height less than 1/2 of blank solvent group) [2, 5]: 0 | Non-resistant (number of plants dead) [2, 5]: 1 | Poorly resistant (number of plants still not capable of bolting) [2, 5]: 0 | Highly resistant (number of plants with growth status consistent with blank solvent group) [2, 6]: 23 | Moderately resistant (number of plants with bolting height less than 1/2 of blank solvent group) [2, 6]: 2 | Non-resistant (number of plants dead) [2, 6]: 1 | Poorly resistant (number of plants still not capable of bolting) [2, 6]: 1 | Highly resistant (number of plants with growth status consistent with blank solvent group) [2, 7]: 24 | Moderately resistant (number of plants with bolting height less than 1/2 of blank solvent group) [2, 7]: 0 | Non-resistant (number of plants dead) [2, 7]: 3 | Poorly resistant (number of plants still not capable of bolting) [2, 7]: 2 | Highly resistant (number of plants with growth status consistent with blank solvent group) [2, 8]: 22 | Moderately resistant (number of plants with bolting height less than 1/2 of blank solvent group) [2, 8]: 1 | Non-resistant (number of plants dead) [2, 8]: 3 | Poorly resistant (number of plants still not capable of bolting) [2, 8]: 1 | herbicide tolerance conferred by the thifensulfuron hydrolase (ALT-1, ALT-2 and ALT-3) ([2]; transgenic Arabidopsis thaliana T1 plants, 30 g ai/ha): conferred Sulfometuron-methyl herbicide tolerance to individual Arabidopsis thaliana plants
